Data as given in patent US8779157B2, “MGLUR4 allosteric potentiators, compositions, and methods of treating neurological dysfunction” (Vanderbilt University, priority 2009, dated 2014).
pEC50: −log10 of the molar value.

molecular target: mGluR4 (UniProt Q14833); test: mGluR4 potentiation assay (fluorescence, Ca2+ or thallium/GIRK readout; EC20 agonist); type: cell-based, human / rat; details: half maximal effective concentration for mGluR4 potentiation; species of receptor not given
Procedure, shortened: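 Human mGluR4 in CHO cells (Ca2+ dye) or rat mGluR4 with GIRK in HEK cells (thallium dye), read kinetically. Potentiation EC50 and maximum fitted from compound concentration-response at fixed agonist.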

First: CC12CCCCN1C(=S)N(c1ccc(NC(=O)c3ccc(Cl)o3)cc1Cl)C2=O (stereo not shown) [Example 1.3.97, 5-chloro-N-(3-chloro-4-(8a-methyl-1-oxo-3-thioxohexahydroimidazo[1,5-a]pyridin-2(3H)-yl)phenyl)furan-2-carboxamide]
Second: CC12CCCCN1C(=S)N(c1ccc(NC(=O)c3cccc(F)n3)cc1Cl)C2=O (stereo not shown) [Example 1.3.98, N-(3-chloro-4-(8a-methyl-1-oxo-3-thioxohexahydroimidazo[1,5-a]pyridin-2(3H)-yl)phenyl)-6-fluoropicolinamide]
The pEC50 of the first is 0.25 log units lower: 6.08 for the first, 6.33 for the second. The second is the more potent here.

Going from CC12CCCCN1C(=S)N(c1ccc(NC(=O)c3ncccc3F)cc1Cl)C2=O (stereo not shown) [Example 1.3.99, N-(3-chloro-4-(8a-methyl-1-oxo-3-thioxohexahydroimidazo[1,5-a]pyridin-2(3H)-yl)phenyl)-3-fluoropicolinamide] to CC12CCCCN1C(=S)N(c1ccc(NC(=O)c3cccnn3)cc1Cl)C2=O (stereo not shown) [Example 1.3.100, N-(3-chloro-4-(8a-methyl-1-oxo-3-thioxohexahydroimidazo[1,5-a]pyridin-2(3H)-yl)phenyl)pyridazine-3-carboxamide], the pEC50 falls from 6.19 to 5.72 (0.47 log units). The first is the more potent here.
